Results from patent US6914045B2, “Glycopeptide antibiotics” (Wyeth Holdings Corporation, priority 2001, dated 2005).
Values after ≈ are worked out from the molar mass of the structure shown.

Legend:
Experiment in all cases: in vitro antibacterial evaluation, MIC by broth dilution
Format in all cases: cell-based
Enterococcus sp. = conditions: broth dilution, 18 hours at 35° C.
Method in brief: (§1)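 Following National Committee for Clinical Laboratory Standards recommendations (M7-A2), susceptibility was measured by dilution in Muller-Hinton II […]. Bacteria were seeded at 5×10^5 CFU/mL against compound concentrations from 64 down to 0.06 μg/mL.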

Staphylococcus sp. = conditions: broth dilution, 18 hours at 35° C.
Method in brief: as §1

Streptococcus sp. = conditions: broth dilution, 18 hours at 35° C.
Method in brief: as §1

Escherichia coli = conditions: 18 hours at 35° C.

MIC Enterococcus avium (GC 4558) (Enterococcus sp.): 128 µg/mL (≈ 90.4 µM) | MIC Enterococcus faecalis (ATCC 29212) (Enterococcus sp.): >128 µg/mL | MIC Enterococcus faecalis (GC 2242) (Enterococcus sp.): >128 µg/mL | MIC Enterococcus faecalis (GC 2691) (Enterococcus sp.): >128 µg/mL | MIC Enterococcus faecalis (GC 3059) (Enterococcus sp.): >128 µg/mL | MIC Enterococcus faecalis (GC 4552) (Enterococcus sp.): >128 µg/mL | MIC Enterococcus faecalis (GC 4553) (Enterococcus sp.): >128 µg/mL | MIC Enterococcus faecalis (GC 4554) (Enterococcus sp.): >128 µg/mL | MIC Enterococcus faecalis (GC 6189) (Enterococcus sp.): >128 µg/mL | MIC Enterococcus faecium (GC 2243) (Enterococcus sp.): >128 µg/mL | MIC Enterococcus faecium (GC 4556) (Enterococcus sp.): >128 µg/mL | MIC Enterococcus faecium (GC 4557) (Enterococcus sp.): >128 µg/mL | MIC Enterococcus faecalis (ATCC 29212) (Enterococcus sp.; inoculum 5×10^5 CFU/mL, strain ATCC 29212): >128 µg/mL | MIC Enterococcus faecalis (GC 2242) (Enterococcus sp.; inoculum 5×10^5 CFU/mL, strain GC 2242): >128 µg/mL | MIC Enterococcus faecium (GC 2243) (Enterococcus sp.; inoculum 5×10^5 CFU/mL, strain GC 2243): >128 µg/mL | MIC Enterococcus faecalis (GC 2691) (Enterococcus sp.; inoculum 5×10^5 CFU/mL, strain GC 2691): >128 µg/mL | MIC Enterococcus faecalis (GC 3059) (Enterococcus sp.; inoculum 5×10^5 CFU/mL, strain GC 3059): >128 µg/mL | MIC Enterococcus faecalis (GC 4552) (Enterococcus sp.; inoculum 5×10^5 CFU/mL, strain GC 4552): >128 µg/mL | MIC Enterococcus faecalis (GC 4553) (Enterococcus sp.; inoculum 5×10^5 CFU/mL, strain GC 4553): >128 µg/mL | MIC Enterococcus faecalis (GC 4554) (Enterococcus sp.; inoculum 5×10^5 CFU/mL, strain GC 4554): >128 µg/mL | MIC Enterococcus faecium (GC 4556) (Enterococcus sp.; inoculum 5×10^5 CFU/mL, strain GC 4556): >128 µg/mL | MIC Enterococcus faecium (GC 4557) (Enterococcus sp.; inoculum 5×10^5 CFU/mL, strain GC 4557): >128 µg/mL | MIC Enterococcus avium (GC 4558) (Enterococcus sp.; inoculum 5×10^5 CFU/mL, strain GC 4558): 128 µg/mL (≈ 90.4 µM) | MIC Enterococcus faecalis (GC 6189) (Enterococcus sp.; inoculum 5×10^5 CFU/mL, strain GC 6189): >128 µg/mL | MIC Coagulase Negative Staphylococcus (GC 4547) (Staphylococcus sp.): >128 µg/mL | MIC Coagulase Negative Staphylococcus (GC 4548) (Staphylococcus sp.): >128 µg/mL | MIC Coagulase Negative Staphylococcus (GC 4549) (Staphylococcus sp.): >128 µg/mL | MIC Coagulase Negative Staphylococcus (GC 4551) (Staphylococcus sp.): >128 µg/mL | MIC Coagulase Negative Staphylococcus (GC 6257) (Staphylococcus sp.): >128 µg/mL | MIC Staphylococcus aureus (ATCC 29213) (Staphylococcus sp.): >128 µg/mL | MIC Staphylococcus aureus (GC 1131) (Staphylococcus sp.): >128 µg/mL | MIC Staphylococcus aureus (GC 3051) (Staphylococcus sp.): >128 µg/mL | MIC Staphylococcus aureus (GC 3053) (Staphylococcus sp.): >128 µg/mL | MIC Staphylococcus aureus (GC 4541) (Staphylococcus sp.): >128 µg/mL | MIC Staphylococcus aureus (GC 4542) (Staphylococcus sp.): >128 µg/mL | MIC Staphylococcus aureus (GC 4544) (Staphylococcus sp.): >128 µg/mL | MIC Staphylococcus aureus (GC 4545) (Staphylococcus sp.): >128 µg/mL | MIC Staphylococcus aureus-SMITH (GC 4543) (Staphylococcus sp.): >128 µg/mL | MIC Staphylococcus aureus (ATCC 29213) (Staphylococcus sp.; strain ATCC 29213): >128 µg/mL | MIC Staphylococcus aureus (GC 1131) (Staphylococcus sp.; strain GC 1131): >128 µg/mL | MIC Staphylococcus aureus (GC 3051) (Staphylococcus sp.; strain GC 3051): >128 µg/mL | MIC Staphylococcus aureus (GC 3053) (Staphylococcus sp.; strain GC 3053): >128 µg/mL | MIC Staphylococcus aureus (GC 4541) (Staphylococcus sp.; strain GC 4541): >128 µg/mL | MIC Staphylococcus aureus (GC 4542) (Staphylococcus sp.; strain GC 4542): >128 µg/mL | MIC Staphylococcus aureus-SMITH (GC 4543) (Staphylococcus sp.; strain GC 4543): >128 µg/mL | MIC Staphylococcus aureus (GC 4544) (Staphylococcus sp.; strain GC 4544): >128 µg/mL | MIC Staphylococcus aureus (GC 4545) (Staphylococcus sp.; strain GC 4545): >128 µg/mL | MIC Coagulase Negative Staphylococcus (GC 4547) (Staphylococcus sp.; strain GC 4547): >128 µg/mL | MIC Coagulase Negative Staphylococcus (GC 4548) (Staphylococcus sp.; strain GC 4548): >128 µg/mL | MIC Coagulase Negative Staphylococcus (GC 4549) (Staphylococcus sp.; strain GC 4549): >128 µg/mL | MIC Coagulase Negative Staphylococcus (GC 4551) (Staphylococcus sp.; strain GC 4551): >128 µg/mL | MIC Coagulase Negative Staphylococcus (GC 6257) (Staphylococcus sp.; strain GC 6257): >128 µg/mL | MIC Streptococcus agalactiae (GC 4564) (Streptococcus sp.): >128 µg/mL | MIC Streptococcus pneumoniae (ATCC 6301) (Streptococcus sp.): >128 µg/mL | MIC Streptococcus pneumoniae (GC 1894) (Streptococcus sp.): >128 µg/mL | MIC Streptococcus pneumoniae (GC 4565) (Streptococcus sp.): >128 µg/mL | MIC Streptococcus pyogenes (GC 4563) (Streptococcus sp.): >128 µg/mL | MIC Streptococcus pneumoniae (ATCC 6301) (Streptococcus sp.; inoculum 5×10^5 CFU/mL, strain ATCC 6301): >128 µg/mL | MIC Streptococcus pneumoniae (GC 1894) (Streptococcus sp.; inoculum 5×10^5 CFU/mL, strain GC 1894): >128 µg/mL | MIC Streptococcus pyogenes (GC 4563) (Streptococcus sp.; inoculum 5×10^5 CFU/mL, strain GC 4563): >128 µg/mL | MIC Streptococcus agalactiae (GC 4564) (Streptococcus sp.; inoculum 5×10^5 CFU/mL, strain GC 4564): >128 µg/mL | MIC Streptococcus pneumoniae (GC 4565) (Streptococcus sp.; inoculum 5×10^5 CFU/mL, strain GC 4565): >128 µg/mL | MIC Escherichia coli (ATCC 25922) (Escherichia coli): >128 µg/mL | MIC Escherichia coli (GC 4559) (Escherichia coli): >128 µg/mL | MIC Escherichia coli (GC 4560) (Escherichia coli): >128 µg/mL
Structure (SMILES): CC(c1ccccc1)C1NC(=O)CNC(=O)C(CO)NC(=O)C(C(O)C2CNC(=N)N2C2OC(CO)C(O)C3OC(C)(C)OC32)NC(=O)C(C(O)C2CNC(=N)N2)NC(=O)C(Cc2ccc(OC3OC(CO)C(OC4OC(CO)C(O)C5OC(C)(C)OC45)C4OC(C)(C)OC34)cc2)NC1=O (stereo not shown) [Example 229a]
MIC Staphylococcus haemolyticus (GC 4546) (Staphylococcus sp.): >128 µg/mL | MIC Staphylococcus haemolyticus (GC 4546) (Staphylococcus sp.; strain GC 4546): >128 µg/mL
